Results from patent publication US20070259939A1, “USING NALTREXONE AS A MULTI-PURPOSE HEALTH SUPPLEMENT TO IMPROVE THE HUMAN CONDITION AND PREVENTING MULTIPLE DISEASES AND INFIRMITIES BY STIMULATING IMMUNE SYSTEM VITALITY AND ROBUSTNESS” (ACCELERATED TECHNOLOGIES, priority 2006, published 2007).

Experiments:
alcohol cravings = assay: inhibition of alcohol cravings by low dose naltrexone; assay type: in vivo, human
Description: Naltrexone is already known to help cure addictive behaviors, such as alcoholism, opiate, narcotic and tobacco addiction. With respect to the treatment of alcohol addiction, naltrexone may be effective because it eliminates the neural positive reinforcement normally experienced in the brain by blocking the receptors that provide the stimulatory effect felt from alcohol. As a result of the lack of positive reinforcement, there is no internal incentive to drink alcohol. In a similar manner, in another embodiment of the invention, the daily administration of low dose naltrexone may greatly reduce or eliminate the tendency to engage in addictive behavior by preventing its onset. This may be accomplished by diminishing any potential internal rewards for using chemical substances in the first place. […] The diminished desire for alcohol resulting from a low dose of naltrexone may be effective for more than 24 hours, thus for example a dose administered at 7:00 pm one evening may continue to inhibit alcohol cravings throughout the following evening. A person in need of curbing an alcoholic appetite may take a pill, either before or along with the drink, and discover no desire for a second or third drink. To further eliminate an alcoholic appetite, a series of 1.5 mg naltrexone doses may be taken without alcohol, starting for example at about 6:00 pm.

cancer patients = settings: low dose naltrexone; cited from earlier work
beta-endorphins = settings: small doses each night; following days; patients who initially had deficient endorphin levels; cited from earlier work
[1] = low dose levels; cited from earlier work

## O=C1CC[C@@]2(O)[C@H]3Cc4ccc(O)c5c4[C@@]2(CCN3CC2CC2)[C@H]1O5 [naltrexone]
Alcohol cravings; low dosage, around 4.5 mg
  effect on alcohol cravings: greatly inhibit alcohol cravings
Alcohol cravings; low dose of naltrexone
  duration of diminished desire for alcohol: more than 24 hours
Cancer patients
  cancer patients with a positive effect (for example stopping the spread of tumors): ≤ 65%
  cancer patients with remission: 30%
beta-endorphins
  increase in beta-endorphins circulating in the blood: 200-300%
[1]
  side effects: not known to have any important side effects
